Assay results as given in ChEMBL document CHEMBL4425083, “Quadruplex Nucleic Acids as Novel Therapeutic Targets” (J Med Chem, 2016).

System: Quadruplex DNA
Assay: Binding affinity to c-myc G-quadruplex DNA (unknown origin) assessed as increase in melting temperature at 50 uM by CD-spectrometric analysis
Type: nucleic-acid assay

In the case of Cc1ccc(NC(=O)c2c(C)oc3ccc(O)c(CN4CCCCCC4)c23)cc1, the ΔTm is reported as 2.1 °C.
